{
  "source": "patent US20140154717A1",
  "about": "“METHOD FOR DETECTING CANCER CELL USING FLUORESCENTLY LABELED L-GLUCOSE DERIVATIVE, AND CANCER CELL-IMAGING AGENT COMPRISING FLUORESCENTLY LABELED L-GLUCOSE DERIVATIVE” (priority 2011, published 2014)",
  "key": {"tumor cells (C6 glioma)": {"test_system": "tumor cells (C6 glioma)", "assay": "In vivo fluorescent imaging using C6 tumor model mice (rat glioma C6 cells transplanted subcutaneously in nude mice)", "design": "species or system mouse", "procedure": "C6 cells were prepared according to an ordinary method so that the cell number was 2×10^7 cells/mL.\nC6 cells were seeded on a 10 cm petri dish, allowed to stand still in a CO2 incubator, and cultured at 37° C. The culture medium was exchanged once every two days.\n1 g/L glucose-containing Dulbecco's modified Eagle's Medium (DMEM) (Nacalai No. 08456-65), to which Fetal Bovine Serum (Equitech-Bio SFBM) was added so that the final concentration was 10% and penicillin-streptomycin (Nacalai No. 26253-84) was added so that the final concentration was 1%, was used.\n5 to 6-week old athymic nude mice (BALB/cAJcl-nu/nu) were transplanted with 50 μL of a cell suspension adjusted to 2×10^7 cells/mL subcutaneously around the root of right hind paw, under isoflurane anesthesia. The transplanted tumor cells were observed until growing to about 200 to 300 mm^3, and used in vivo fluorescent imaging.\nC6 tumor model mice were allowed to stand still in an in vivo fluorescence imaging apparatus IVIS (registered trademark) Kinetics (Caliper Life sciences) under isoflurane anesthesia and autofluorescence of the mouse skin was measured, and subsequently, 400 nmol (100 μL) of 2-NBDLG or 2-NBDG dissolved in physiological saline was administered from the tail vein over a period of 30 seconds, and measurement of the fluorescence imaging was started again from one minute after starting administration. The in vivo fluorescence imaging was measured at an excitation wavelength of 465 nm using a GFP filter (transmittable fluorescence wavelength: 515-575 nm). The measurement was conducted for 45 minutes, and images were taken every one minute during the initial 20 minute and every 5 minutes from 20 to 45 minutes, obtaining 25 images in total. The accumulated values (fluorescence value) of 2-NBDLG and 2-NBDG in the interested area were obtained by subtracting the autofluorescence images from the 25 images taken after administration of 2-NBDLG or 2-NBDG.\nA vial of 0.5 mg of 2-NBDLG or 2-NBDG was dissolved in 400 μL of physiological saline directly before the experiment, to prepare a solution having a final concentration of 400 nmol/100 μL."}, "[1]": {"test_system": "mouse insulinoma cells (MIN6)", "assay": "Uptake into MIN6 cells with or without inhibitors, fluorescence microplate reader (Flex Station)", "assay_type": "cell-based", "settings": "200 μM, 5 minutes", "procedure": "A difference in the uptake of 2-NBDLG (200 μM) and 2-NBDG (200 μM) into mouse insulinoma cells (MIN6) each applied for 5 minutes was analyzed quantitatively by a fluorescence microplate reader Flex Station (manufactured by Molecular Devices Corporation) in the condition whether or not various inhibitors are present. The well used for measurement was a 96-well clear bottomed well plate μ CLEAR-PLATE (Greiner bio-one, BLACK, 96 well, #655090) having longitudinally […] to 12 twelve columns, and MIN6 cell suspension prepared at a proportion of 6×10^5 cells/mL was seeded uniformly into wells from line B to line G at the third column and the fifth column each in an amount of 15 μL. For medium exchange, the half quantity was exchanged every two days in 0 to 4 DIV (days in vitro), and from 5 DIV or later, exchanged every day, and on days 10 to 13 (10 to 13 DIV), the cells were subjected to an experiment. Line A and line H were used as a control for checking correct washout, without seeding cells. In the fourth column, cells were not present, and wells in this column were used as a blank containing only Krebs Ringer buffer solution (KRB, containing 0.1 mM gap junction inhibitor carbenoxolone and 5.6 mM glucose). Evaluation was done in a way that 2-NBDLG or 2-NBDG was charged in each tube of a 8-strip PCR tube, and sucked using a 8-channel pipette and dropped simultaneously into wells. In this way, administration to wells for 2-NBDLG and to wells for 2-NBDG can be done simultaneously, making reliable evaluation possible. As described above, cells are present in 12 wells in the third and the fifth two columns, and these were divide into 4 groups each having 3 wells according to a difference either 2-NBDLG or 2-NBDG and whether an inhibitor is present or absent. Specifically, when checking the effect by the presence or absence of a GLUT inhibitor Cytochalasin B (10 μM) on the uptake of 2-NBDLG (200 μM) and 2-NBDG (200 μM), first, in wells, which are planned to be measured in the presence of Cytochalasin B, Cytochalasin B was added 5 minutes prior to the administration of the fluorescently labeled glucose derivative. Before administration of a fluorescently labeled glucose derivative, the autofluorescence was measured in each well. The measurement was done with Flex Station in Well Scan Mode and in the Bottom Read position at Ex 470 nm, Em 540 nm, Cut off 495 nm, Averaging 3, and Photomultiplier sensitivity: high. In Well Scan Mode of the fluorescence microplate reader Flex Station, one well was divided into nine observation areas and these are measured independently. The presence of approximately 5000 cells in each of 9-divided areas was separately confirmed by Z section measurement of a realtime deconvolution microscope. 2-NBDG and 2-NBDLG were administered with or without Cytochalasin B (37° C., 5 minutes), and after cessation of administration, an operation of adding 250 μL of a KRB solution containing no fluorescently labeled glucose into 50 μL of a solution in a well was repeated 7 times while measuring with a stopwatch, thereby performing washout until the fluorescence intensities of wells in line A and line H set as a control group became equal to the fluorescence intensity of the blank well containing no cell. This process required 7 minutes, and even if cells having broken plasma membrane condition are brought into contact with 2-NBDG and 2-NBDLG, and even if these compounds are once taken up into the cell, these compounds are already eliminated out of the cell and are washed away in measurement, therefore, contribution to an increase in the fluorescence intensity in the whole observation area was judged to be in an ignorable level. This was supported by a separate pharmacological inhibition experiment in which the increase in the fluorescence intensity nearly disappears in the presence of an inhibitor. The above-described method was carried out similarly in the case of other inhibitors. […]"}},
  "note": "“Also recorded” adds a separate entry of the source.",
  "data": [
    {"compound": "O=[N+]([O-])c1ccc(NC2C(O)OC(CO)[C@H](O)C2O)c2nonc12", "note": "(stereo partly drawn) [2-NBDLG, 2-[N-(7-Nitrobenz-2-oxa-1,3-diazol-4-yl)amino]-2-deoxy-L-glucose]", "values": [
      {"measurement": "fluorescence values at tumor-transplanted part (Tumor) versus normal tissue (BG), FIG. 3", "setting": "tumor cells (C6 glioma); 400 nmol i.v., temporal change over 45 minutes, same result in 6 examples", "value": "fluorescence values at the tumor-transplanted part (blue rhombus, Tumor) are consistently larger than at normal tissue"},
      {"measurement": "time from which accumulations at the tumor cell-transplanted part were recognized", "setting": "tumor cells (C6 glioma); 400 nmol/100 μL from the tail vein", "value": "around 5 minutes after administration"},
      {"measurement": "accumulation at the tumor-transplanted part", "setting": "tumor cells (C6 glioma); 400 nmol/100 μL from the tail vein over 30 seconds, non-fasted nude mice, fluorescence images every one minute", "value": "intense accumulations"},
      {"measurement": "contrast between tumor-transplanted part and normal tissue (adipocyte-rich dorsal part near neck)", "setting": "tumor cells (C6 glioma); 400 nmol/100 μL from the tail vein, non-fasted mice", "value": "excellent contrast; also recorded: high contrast"},
      {"measurement": "uptake/accumulation in normal tissue", "setting": "tumor cells (C6 glioma); 400 nmol/100 μL from the tail vein, normal tissue (fat tissue on the back, between back bones, muscle)", "value": "scarcely taken up"},
      {"measurement": "effect of GLUT inhibitor Cytochalasin B on uptake into MIN6 cells", "setting": "[1]; 37° C., Cytochalasin B (10 µM, CB)", "value": "did not show a significant decrease (N.S.)"},
      {"measurement": "uptake into MIN6 cells in buffer containing Na+ versus no Na+ ion (SGLT)", "setting": "[1]; 37° C., Na(−) buffer, choline substituted", "value": "no significant difference"},
      {"measurement": "effect of Phloretin on uptake into MIN6 cells", "setting": "[1]; Phloretin (150 μM, PHT)", "value": "underwent inhibition of the uptake"}
    ]}
  ]
}
